Test results: US11647751B2, “Use of phosphorus containing herbicides as desiccant for plants of the genus Saccharum” (BASF SE, priority 2013, dated 2023)

Tested on: Saccharum officinarum plants
Experiment: Field trial: desiccation of sugarcane leaves after application of diluted glufosinate-ammonium compositions
Type: in vivo
Conditions: growth stage BBCH 49 (approx. 300 cm), evaluation 2 weeks after application
Method: The compositions described in the table above were diluted with water and applied to a field of Saccharum officinarum plants at growth stage BBCH 49 (approximately 300 cm growth height; corresponding to about 2 weeks before harvest), such that the amount of glufosinate ammonium was 800 g/ha or 1000 g/ha, respectively.

CP(=O)(O)CCC(N)C(=O)O (centres unmarked) [glufosinate ammonium, 2-amino-4-[hydroxy(methyl)phosphinoyl]butanoic acid]
desiccation of sugarcane leaves (800 g/ha glufosinate ammonium): 54%
desiccation of sugarcane leaves (1000 g/ha glufosinate ammonium): 60%
